Experimental data: ChEMBL document CHEMBL1629647, “Preclinical evaluation of GS-9160, a novel inhibitor of human immunodeficiency virus type 1 integrase” (Antimicrob Agents Chemother, 2009)

Tests used:
[1] = molecular target: Human immunodeficiency virus type 1 integrase (Human immunodeficiency virus 1, UniProt Q7ZJM1); test: Inhibition of HIV1 integrase strand transfer activity
[2] = system: Human immunodeficiency virus 1; test: Antiviral activity against HIV1 3B infected in human MT-2 cells by two fold dilution method in presence of 10% FBS; type: functional, organism-based; conditions: Human immunodeficiency virus 1, 3B, MT2
[3] = Cytotoxicity against human MT4 cells infected with HIV1 3B by three fold dilution method in presence of 10% FBS; type: cell-based; conditions: MT4 cells infected with HIV-1 3B
[4] = Selectivity index, ratio of CC50 for human T lymphocyte cells to EC50 for HIV1 BAL in presence of 10% FBS; type: toxicity, cell-based
[5] = system: Human immunodeficiency virus 1; test: Antiviral activity against 0.02 MOI HIV1 3B infected in human MT-2 cells by two fold dilution method in presence of 100% human serum; type: functional, organism-based; conditions: Human immunodeficiency virus 1, 3B, MT2
[6] = system: Human immunodeficiency virus 1; test: Antiviral activity against HIV1 3B infected in SupT1 cells assessed as fold increase in viral 2-LTR circles accumulation after […] postinfection by TaqMan real-time PCR; type: functional, SUP-T1
[7] = Cytotoxicity against human SupT1 cells infected with HIV1 3B; type: cell-based, SUP-T1; conditions: SupT1 cells infected with HIV-1 3B
[8] = system: Human immunodeficiency virus 1; test: Antiviral activity against HIV1 infected in SupT1 cells assessed as accumulation of late RT products after 12 hrs; type: functional, organism-based; conditions: Human immunodeficiency virus 1, SUP-T1, 12 h
[9] = system: Human immunodeficiency virus 1; test: Antiviral activity against HIV1 infected in SupT1 cells assessed as accumulation of integrated junction products after 48 hrs by Alu-PCR assay; type: functional, organism-based; conditions: Human immunodeficiency virus 1, SUP-T1, 48 h
[10] = system: Human immunodeficiency virus 1; test: Selectivity ratio of EC50 for antiviral activity against NRTI-resistant HIV1 harboring RTK65R mutant gene to EC50 for antiviral activity against wild-type HIV1 3B; type: functional
[11] = system: Human immunodeficiency virus 1; test: Selectivity ratio of EC50 for antiviral activity against NRTI-resistant HIV1 harboring RTM184V mutant gene to EC50 for antiviral activity against wild-type HIV1 3B; type: functional
[12] = system: Human immunodeficiency virus 1; test: Selectivity ratio of EC50 for antiviral activity against NRTI-resistant HIV1 harboring RT-6TAMs mutant gene to EC50 for antiviral activity against wild-type HIV1 3B; type: functional
[13] = system: Human immunodeficiency virus 1; test: Selectivity ratio of EC50 for antiviral activity against NNRTI-resistant HIV1 harboring RTK103N mutant gene to EC50 for antiviral activity against wild-type HIV1 3B; type: functional
[14] = system: Human immunodeficiency virus 1; test: Selectivity ratio of EC50 for antiviral activity against NNRTI-resistant HIV1 harboring RTY181C mutant gene to EC50 for antiviral activity against wild-type HIV1 3B; type: functional
[15] = system: Human immunodeficiency virus 1; test: Selectivity ratio of EC50 for antiviral activity against PI-resistant HIV1 harboring […], L90M mutant gene to EC50 for antiviral activity against wild-type HIV1 3B; type: functional
[16] = system: Human immunodeficiency virus 1; test: Selectivity ratio of EC50 for antiviral activity against 3TC-resistant HIV1 selected after 4 passages to EC50 for antiviral activity against wild-type HIV1 3B; type: functional
[17] = system: Human immunodeficiency virus 1; test: Selectivity ratio of EC50 for antiviral activity against 3TC-resistant HIV1 selected after 8 passages to EC50 for antiviral activity against wild-type HIV1 3B; type: functional
[18] = system: Human immunodeficiency virus 1; test: Selectivity ratio of EC50 for antiviral activity against EFV-resistant HIV1 selected after 3 passages to EC50 for antiviral activity against wild-type HIV1 3B; type: functional
[19] = system: Human immunodeficiency virus 1; test: Selectivity ratio of EC50 for antiviral activity against EFV-resistant HIV1 selected after 7 passages to EC50 for antiviral activity against wild-type HIV1 3B; type: functional
[20] = system: Human immunodeficiency virus 1; test: Selectivity ratio of EC50 for antiviral activity against APV-resistant HIV1 selected after 2 passages to EC50 for antiviral activity against wild-type HIV1 3B; type: functional
[21] = system: Human immunodeficiency virus 1; test: Selectivity ratio of EC50 for antiviral activity against GS-9160-resistant HIV1 selected after 5 passages to EC50 for antiviral activity against wild-type HIV1 3B; type: functional
[22] = system: Human immunodeficiency virus 1; test: Selectivity ratio of EC50 for antiviral activity against GS-9160-resistant HIV1 selected after 6 passages to EC50 for antiviral activity against wild-type HIV1 3B; type: functional
[23] = system: Human immunodeficiency virus 1; test: Selectivity ratio of EC50 for antiviral activity against GS-9160-resistant HIV1 selected after 8 passages to EC50 for antiviral activity against wild-type HIV1 3B; type: functional
[24] = system: Human immunodeficiency virus 1; test: Selectivity ratio of EC50 for antiviral activity against HIV1 harboring T66I mutation in catalytic core domain of integrase to EC50 for antiviral activity against wild-type HIV1 3B; type: functional
[25] = system: Human immunodeficiency virus 1; test: Selectivity ratio of EC50 for antiviral activity against HIV1 harboring E92Q mutation in catalytic core domain of integrase to EC50 for antiviral activity against wild-type HIV1 3B; type: functional
[26] = system: Human immunodeficiency virus 1; test: Selectivity ratio of EC50 for antiviral activity against HIV1 harboring E92V mutation in catalytic core domain of integrase to EC50 for antiviral activity against wild-type HIV1 3B; type: functional
[27] = system: Human immunodeficiency virus 1; test: Selectivity ratio of EC50 for antiviral activity against HIV1 harboring G140S mutation in catalytic core domain of integrase to EC50 for antiviral activity against wild-type HIV1 3B; type: functional
[28] = system: Human immunodeficiency virus 1; test: Selectivity ratio of EC50 for antiviral activity against HIV1 harboring Q148K mutation in catalytic core domain of integrase to EC50 for antiviral activity against wild-type HIV1 3B; type: functional
[29] = system: Human immunodeficiency virus 1; test: Selectivity ratio of EC50 for antiviral activity against HIV1 harboring V151A mutation in catalytic core domain of integrase to EC50 for antiviral activity against wild-type HIV1 3B; type: functional
[30] = system: Human immunodeficiency virus 1; test: Selectivity ratio of EC50 for antiviral activity against HIV1 harboring N155H mutation in catalytic core domain of integrase to EC50 for antiviral activity against wild-type HIV1 3B; type: functional
[31] = system: Human immunodeficiency virus 1; test: Selectivity ratio of EC50 for antiviral activity against HIV1 harboring N155S mutation in catalytic core domain of integrase to EC50 for antiviral activity against wild-type HIV1 3B; type: functional
[32] = system: Human immunodeficiency virus 1; test: Selectivity ratio of EC50 for antiviral activity against HIV1 harboring L74M and E92V mutation in catalytic core domain of integrase to EC50 for antiviral activity against wild-type HIV1 3B; type: functional
[33] = system: Human immunodeficiency virus 1; test: Selectivity ratio of EC50 for antiviral activity against HIV1 harboring E92V and V151A mutation in catalytic core domain of integrase to EC50 for antiviral activity against wild-type HIV1 3B; type: functional
[34] = system: Human immunodeficiency virus 1; test: Selectivity ratio of EC50 for antiviral activity against HIV1 harboring E92V, G140S and V151A mutation in catalytic core domain of integrase to EC50 for antiviral activity against wild-type HIV1 3B; type: functional
[35] = system: Human immunodeficiency virus 1; test: Selectivity ratio of EC50 for antiviral activity against HIV1 harboring G140S and Q148H mutation in catalytic core domain of integrase to EC50 for antiviral activity against wild-type HIV1 3B; type: functional
in vitro [36] = conditions: human, MT2 cells
Description: Selectivity index, ratio of CC50 for human MT2 cells to EC50 for HIV1 3B in presence of 10% FBS

in vitro [37] = conditions: human, MT4 cells
Description: Selectivity index, ratio of CC50 for human MT4 cells to EC50 for HIV1 3B in presence of 10% FBS

[38] = Cytotoxicity against human T lymphocyte cells uninfected by XTT method in presence of 10% FBS
[39] = Cytotoxicity against human uninfected MT2 cells by three fold dilution method in presence of 10% FBS

Chain of Human immunodeficiency virus type 1 integrase (Q7ZJM1 whole entry): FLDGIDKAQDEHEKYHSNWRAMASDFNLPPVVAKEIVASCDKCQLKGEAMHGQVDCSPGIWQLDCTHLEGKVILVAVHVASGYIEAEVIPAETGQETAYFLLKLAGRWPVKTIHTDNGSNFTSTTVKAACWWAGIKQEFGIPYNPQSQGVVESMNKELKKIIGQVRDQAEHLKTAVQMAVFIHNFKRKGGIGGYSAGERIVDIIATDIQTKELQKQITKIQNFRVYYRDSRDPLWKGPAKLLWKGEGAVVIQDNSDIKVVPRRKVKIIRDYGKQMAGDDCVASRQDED

Row | SMILES | IC50 [1] [nM] | EC50 [2] [nM] | CC50 [3] [nM] | selectivity ratio [4] | EC50 [5] [nM] | fold change (FC) [6] | CC50 [7] [nM] | EC50 [8] [nM] | EC50 [9] [nM] | Ratio EC50 [10] | Ratio EC50 [11] | Ratio EC50 [12] | Ratio EC50 [13] | Ratio EC50 [14] | Ratio EC50 [15] | Ratio EC50 [16] | Ratio EC50 [17] | Ratio EC50 [18] | Ratio EC50 [19] | Ratio EC50 [20] | also measured
1 | O=C(NCc1ccc(F)cc1)c1nc(N2CCCCS2(=O)=O)c2cccnc2c1O | 44 | 2 | 1600 | 700 | 96 | 3 | 1900 | > 1000 | 1.3 | 1 | 1 | 1 | 1 | 1 | 1 | 1.3 | 0.8 | 1.2 | 1.3 | 2.5 | Ratio EC50 [21]: 2.7; Ratio EC50 [22]: 29; Ratio EC50 [23]: 65; Ratio EC50 [24]: 2; Ratio EC50 [25]: 42; Ratio EC50 [26]: 8; Ratio EC50 [27]: 2; Ratio EC50 [28]: 35; Ratio EC50 [29]: 5; Ratio EC50 [30]: 65; Ratio EC50 [31]: 21; Ratio EC50 [32]: 39; Ratio EC50 [33]: 111; Ratio EC50 [34]: 371; Ratio EC50 [35]: 478; selectivity ratio (in vitro [36]): 1500; selectivity ratio (in vitro [37]): 400; CC50 [38]: 2100 nM; CC50 [39]: 3000 nM
2 | CN(c1c2c(c(O)c3ncccc13)C(=O)N(Cc1ccc(F)cc1)C2)S(C)(=O)=O | 28 | 2.1 | 320 | 2670 | 19 | 1.9 | 600 | > 1000 | 0.9 | 1 | 1 | 2 | 1 | 1 | 1 | 0.5 | 0.5 | 0.9 | 0.6 | 1 | Ratio EC50 [21]: 4.3; Ratio EC50 [22]: 26; Ratio EC50 [23]: 60; Ratio EC50 [24]: 1; Ratio EC50 [25]: 32; Ratio EC50 [26]: 12; Ratio EC50 [27]: 2; Ratio EC50 [28]: 23; Ratio EC50 [29]: 5; Ratio EC50 [30]: 50; Ratio EC50 [31]: 12; Ratio EC50 [32]: 67; Ratio EC50 [33]: 104; Ratio EC50 [34]: 583; Ratio EC50 [35]: 1132; selectivity ratio (in vitro [36]): 1900; selectivity ratio (in vitro [37]): 457; CC50 [38]: 4000 nM; CC50 [39]: 4000 nM
